pIC50: −log10 of the molar value. Like-named read-outs stand apart in the source and are kept apart here.
Molecular target: T1, LRRK2(G2019S mutation, GST-LRRK2(amino acids 970-2527)) (Homo sapiens, UniProt Q5S007, G2019S)
T1 construct: GST-LRRK2(amino acids 970-2527); GST (N); purchased Life Technologies Corporation
Experiment: LRRK2 Km ATP LanthaScreen Assay
Format: biochemical
Settings: read-out: LRRK2 IC50
Experimental: Unless otherwise noted, all LRRK2 IC50 data presented in tables refers to the LRRK2 Km ATP LanthaScreen™ Assay that is described in the Biological Assay section.
The data presented for the 5 mM and Km ATP LanthaScreen™ Assay represents mean IC50 values based on several test results and may have reasonable. deviations depending on the specific conditions and reagents used. Reagents for the LRRK2 5 mM and Km ATP LanthaScreen™ Assay were purchased from Life Technologies Corporation.
Results are analysed using Assay Data Analyzer.

[1] = Km ATP LanthaScreen, mean IC50 of several tests
[2] = Km ATP LanthaScreen Assay, LRRK2 G2019S, mean IC50 values

T1 sequence (Q5S007 970-2527 G2019S): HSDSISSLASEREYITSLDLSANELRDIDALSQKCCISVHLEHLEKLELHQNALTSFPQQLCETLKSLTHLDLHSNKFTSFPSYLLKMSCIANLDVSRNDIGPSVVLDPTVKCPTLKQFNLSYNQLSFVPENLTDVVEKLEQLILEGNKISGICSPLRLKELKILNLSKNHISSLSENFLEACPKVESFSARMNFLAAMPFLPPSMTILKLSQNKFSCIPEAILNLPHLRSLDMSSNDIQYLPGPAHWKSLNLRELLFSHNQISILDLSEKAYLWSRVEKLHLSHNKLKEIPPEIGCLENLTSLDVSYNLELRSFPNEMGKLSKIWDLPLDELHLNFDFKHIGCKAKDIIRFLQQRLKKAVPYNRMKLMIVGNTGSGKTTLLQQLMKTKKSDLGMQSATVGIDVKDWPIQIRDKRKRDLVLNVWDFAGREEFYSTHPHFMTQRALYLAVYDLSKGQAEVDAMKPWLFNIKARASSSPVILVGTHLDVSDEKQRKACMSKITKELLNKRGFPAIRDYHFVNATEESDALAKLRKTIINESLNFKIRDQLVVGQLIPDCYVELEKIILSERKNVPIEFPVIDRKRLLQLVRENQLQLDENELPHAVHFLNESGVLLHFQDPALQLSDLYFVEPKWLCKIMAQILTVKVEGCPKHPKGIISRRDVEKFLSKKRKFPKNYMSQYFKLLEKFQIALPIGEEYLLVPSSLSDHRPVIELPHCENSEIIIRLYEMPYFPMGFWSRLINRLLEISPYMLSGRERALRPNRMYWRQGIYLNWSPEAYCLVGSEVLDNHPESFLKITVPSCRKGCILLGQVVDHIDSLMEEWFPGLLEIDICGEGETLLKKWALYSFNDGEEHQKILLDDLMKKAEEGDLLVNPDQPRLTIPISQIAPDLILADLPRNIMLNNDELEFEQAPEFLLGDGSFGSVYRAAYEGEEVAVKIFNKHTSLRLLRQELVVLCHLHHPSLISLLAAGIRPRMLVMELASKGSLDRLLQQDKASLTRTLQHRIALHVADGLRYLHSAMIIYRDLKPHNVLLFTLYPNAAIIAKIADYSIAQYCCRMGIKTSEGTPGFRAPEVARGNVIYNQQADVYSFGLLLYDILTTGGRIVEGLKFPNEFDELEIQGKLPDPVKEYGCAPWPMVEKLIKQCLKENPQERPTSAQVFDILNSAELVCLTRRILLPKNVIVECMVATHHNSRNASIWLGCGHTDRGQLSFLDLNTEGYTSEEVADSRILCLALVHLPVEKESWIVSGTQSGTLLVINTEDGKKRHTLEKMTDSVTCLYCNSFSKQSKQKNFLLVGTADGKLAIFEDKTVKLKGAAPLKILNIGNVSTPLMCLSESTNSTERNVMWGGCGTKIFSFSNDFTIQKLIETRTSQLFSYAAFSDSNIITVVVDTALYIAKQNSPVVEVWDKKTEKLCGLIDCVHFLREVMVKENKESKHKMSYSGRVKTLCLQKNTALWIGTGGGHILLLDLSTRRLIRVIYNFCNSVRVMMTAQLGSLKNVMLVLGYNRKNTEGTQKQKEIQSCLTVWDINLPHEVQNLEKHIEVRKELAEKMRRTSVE

SMILES	pIC50 [1]	pIC50 [2]
FCOc1ccc2[nH]nc(-c3ccnc(N4CCOCC4)c3)c2c1 [Example 85]	7.99	–
OCc1ccc2[nH]nc(-c3ccnc(N4CCOCC4)c3)c2c1 [Example 86]	7.79	–
c1cc(-c2n[nH]c3ccc(CNCC4CC4)cc23)cc(N2CCOCC2)n1 [Example 87]	6.37	–
c1cc(-c2n[nH]c3ccc(CN4CCCCC4)cc23)cc(N2CCOCC2)n1 [Example 88]	–	6.79
CN(C)Cc1ccc2[nH]nc(-c3ccnc(N4CCOCC4)c3)c2c1 [Example 89]	–	7.46
CNCc1ccc2[nH]nc(-c3ccnc(N4CCOCC4)c3)c2c1 [Example 90]	–	6.52
COC1CN(Cc2ccc3[nH]nc(-c4ccnc(N5CCOCC5)c4)c3c2)C1 [Example 91]	–	6.79
CN(Cc1ccc2[nH]nc(-c3ccnc(N4CCOCC4)c3)c2c1)C1CCCC1 [Example 92]	–	7.27
N#CCCNCc1ccc2[nH]nc(-c3ccnc(N4CCOCC4)c3)c2c1 [Example 93]	–	7.52
CN(Cc1ccc2[nH]nc(-c3ccnc(N4CCOCC4)c3)c2c1)Cc1ccco1 [Example 94]	–	7.89
CCN(CC)CCNCc1ccc2[nH]nc(-c3ccnc(N4CCOCC4)c3)c2c1 [Example 95]	–	6.56
c1cc(-c2n[nH]c3ccc(CNC4CCCNC4)cc23)cc(N2CCOCC2)n1 (centres unmarked) [Example 96]	–	6.96
c1cc(-c2ccc3[nH]nc(-c4ccnc(N5CCOCC5)c4)c3c2)ccn1 [Example 97]	7.86	–
c1cncc(-c2ccc3[nH]nc(-c4ccnc(N5CCOCC5)c4)c3c2)c1 [Example 98]	8.47	–
c1ccc(-c2ccc3[nH]nc(-c4ccnc(N5CCOCC5)c4)c3c2)nc1 [Example 99]	7.86	–
Oc1cc(-c2ccc3[nH]nc(-c4ccnc(N5CCOCC5)c4)c3c2)ccn1 [Example 100]	8.47	–
c1ccc(COc2ccnc(-c3ccc4[nH]nc(-c5ccnc(N6CCOCC6)c5)c4c3)n2)cc1 [Example 101]	–	6.74
COc1cnccc1-c1ccc2[nH]nc(-c3ccnc(N4CCOCC4)c3)c2c1 [Example 102]	–	9.70

SMILES	pIC50 [1]	pIC50 [2]
Brc1ccc2c(-c3ccnc(N4CCOCC4)c3)n[nH]c2c1 [Example 103]	7.72	–
Cc1ccc2c(-c3ccnc(N4CCOCC4)c3)n[nH]c2c1 [Example 104]	7.46	–
COc1ccc2c(-c3ccnc(N4CCOCC4)c3)n[nH]c2c1 [Example 105]	7.52	–
N#Cc1ccc2c(-c3ccnc(N4CCOCC4)c3)n[nH]c2c1 [Example 106]	7.31	–
O=C(c1ccccc1)c1ccc2[nH]nc(-c3ccnc(N4CCOCC4)c3)c2c1 [Example 107]	8.47	–
CS(=O)(=O)c1cccc(Nc2ccc3[nH]nc(-c4ccnc(N5CCOCC5)c4)c3c2)c1 [Example 108]	8.03	–
CN(C)c1cc(-c2n[nH]c3ccc(Nc4cccc(S(C)(=O)=O)c4)cc23)ccn1 [Example 109]	–	7.47
CC(C)CCNc1cc(-c2n[nH]c3ccc(Nc4cccc(S(C)(=O)=O)c4)cc23)ccn1 [Example 110]	–	7.08
CCNc1cc(-c2n[nH]c3ccc(Nc4cccc(S(C)(=O)=O)c4)cc23)ccn1 [Example 111]	–	7.46
CS(=O)(=O)c1cccc(Nc2ccc3[nH]nc(-c4ccnc(NC5CC5)c4)c3c2)c1 [Example 112]	–	7.96
COc1ccccc1Nc1cc(-c2n[nH]c3ccc(Nc4cccc(S(C)(=O)=O)c4)cc23)ccn1 [Example 113]	6.37	–
Cc1cccc(Nc2ccc3[nH]nc(-c4ccnc(N5CCOCC5)c4)c3c2)c1 [Example 114]	7.54	–
CCN(c1cccc(C)c1)c1ccc2[nH]nc(-c3ccnc(N4CCOCC4)c3)c2c1 [Example 115]	5.80	–
c1ccc(Cc2ccc3[nH]nc(-c4ccnc(N5CCOCC5)c4)c3c2)cc1 [Example 116]	7.35	–
COc1ccnc(F)c1-c1ccc2[nH]nc(-c3ccnc(N4CCOCC4)c3)c2c1 [Example 117]	8.47	–
Oc1ccncc1-c1ccc2[nH]nc(-c3ccnc(N4CCOCC4)c3)c2c1 [Example 118]	7.15	–
Oc1ccnc(F)c1-c1ccc2[nH]nc(-c3ccnc(N4CCOCC4)c3)c2c1 [Example 119]	7.47	–
